# Source: patent publication US6716987B1, “Derivatives of benzofuran or benzodioxazole compounds” (Kyowa Hakko Kogyo Co., Ltd., priority 1995, dated 2004)
# What was measured:
# TNF α production = assay: Suppression effect on TNF α production in the LPS induced mouse sepsis model; format: in vivo; details: serum TNF α
# Description: Lipopolysaccharide (LPS, DIFCO Laboratories) was dissolved in physiological saline to make a final concentration of 0.2 mg/ml. The resulting solution was administered intravenously to the tail of Balb/c male mice (7-week-old) (Charls River Japan Co.) at 200 μl per 20 g body weight of 5 to 6 mice/group. One hour after administration, blood was drawn from a fundus oculi vein of each mouse to obtain serum. […] The concentration of TNF a in serum was measured by enzyme-linked immunosorbent assay (ELISA method) as follows: […] anti-mouse TNF a monoclonal antibody (Pharmingen Inc.) diluted with a phosphate buffer solution (PBS) was added to a 96-well microtiter plate (Nalge Nunc International immuno-plate <MaxiSorp=) at […]; allowed to stand at 4° C. for 12 hours for coating; mixed with […] of a phosphate buffer solution containing 1% bovine serum albumin (BSA) (1% BSA-PBS); allowed to stand at room temperature for 1 hour to block the non-specific binding; washed with phosphate buffer solution; mixed with […] of the subject serum diluted two-fold with 1% BSA-PBS; and allowed to stand at room temperature for 2 hours. Furthermore, recombinant mouse TNF α (Genzyme Corp.) diluted with 1% BSA-PBS was similarly treated and used as a standard substance. These plates were washed three times with PBS (0.05% Tween-PBS) containing 0.05% polyoxyethylenesorbitan monolaurate (Tween 20, Wako Pure Chemical Industries, Ltd.), mixed with […] of biotin-labelled anti-mouse TNF α monoclonal antibody (Method A: Pharmingen Inc.; Method B: Genzyme Corp) diluted with 1% BSA-PBS to make a concentration of 1 mg/ml, allowed to stand at room temperature for 1 hour, washed three times with 0.05% Tween-PBS, mixed with […] of horseradish peroxidase avidin D (Vector Laboratories Inc.) diluted four-thousand-fold with 1% BSA-PBS, and allowed to stand at room temperature for 30 min. Finally, these plates were washed three times with 0.05% Tween-PBS, and mixed with […] of 3,3′,5,5′-tetramethylbenzidine. After color development, the reaction was stopped by adding […] of 10% sulfuric acid solution, and then, the absorbance at 450 nm was measured. The concentration of TNF α in serum was calculated from a calibration curve.
# The rate of suppression of each test compound on TNF α production was obtained from the following formula:
# Suppression rate=(A−B)/A,
# wherein A is the TNF α concentration of the control group and B is the TNF α concentration of the experimental group.
# In the above formula, the TNF α concentration of the control group is defined as the value obtained in the absence of the test compound (0.5% methyl cellulose solution alone).
# Employed as the reference compounds were 7-methoxy-4-[1-oxo-2-(4-pyridyl)ethyl]-spiro[2,3-dihydrobenzofuran-2,1′-cyclopentane] hydrochloride (disclosed in Example 100 of Japanese Patent Laid-Open No. 8-836624 and hereinafter referred to as Compound RA) having the formula (RA) and 2-benzoyl-4-(3,5-dichloro-4-pyridyl)aminocarbonyl)-7-methoxybenzofuran (disclosed in Example 35 of Japanese Patent Laid-Open No. 8-534708 and hereinafter referred to as Compound RB) having the formula (RB): [drawing 660]
# Sunkus murinus = assay: Effect on vomiting induction in male Sunkus murinus; format: in vivo; details: dose 10 mg/kg i.p., observed for 1 hour after administration
# Description: Five to fifteen male Sunkus murinus per group weighing approximately 60 g were used for the test. According to the method of Matsumoto, et. al. [Japan J. Pharmacol., 48, 303 (1988)], Sunkus murinus were placed separately into metal wire cages (width 15 cm×length 21 cm×height 15 cm). Each sample of the test compound was suspened in a 0.5% Tween 80 physiological saline solution and administered intraperitoneally (i.p.) at a dose of 10 ml/kg. […] In the group that was administered the test-compound, the results are represented as the number of vomiting animals/the number of experimental animals. Compound RA was employed as a reference compound.
# [1] = tested on: neutrophil and eosinophil accumulation; assay: Effect on neutrophil and eosinophil accumulation in BN rats; format: in vivo, rat; details: dose of 30 mg/kg p.o.; BALF 24 hours after antigen
# Description: The Howell et al's method (Pulmonary Pharmacology, 8, […] (1995)) was partly modified and used for the active sensitization and the antigen exposure.
# Oval albumin (OA) (1 mg) and aluminium hydroxide (200 mg) were subcutaneously injected into male Brown-Norway rats (6 week-age, Nippon Charles River), to which were intra abdominally administered dead cells of Bordetella pertussis for the active sensitization of the rats. After 14 days, the rats were put into a plastic chamber (30×50×30 cm), and left to inspire a 1% (w/v) OA solution for 10 minutes for antigen induction. For the inspiration, used was an ultrasonic nebulizer (NE-U12, by Omron, Tokyo).
# The test compound was suspended in 0.5% methyl cellulose, and orally administered (p.o.) to the rats one hour prior to the antigen challenge. The group of the rats to which 0.5% methyl cellulose was administered and which were left to inspire OA was referred to as OA Group, while the group of the rats which were left to inspire a physiological saline solution in place of OA was referred to as Saline Group.
# After 24 hours from the antigen induction, bronchoalveolar lavage (BAL) was performed. […] Then, the number of all leukocytes existing in the resulting suspension was counted, using an automatic leukocyte counter (Celltac α MEK-6158, by Nippon Koden, Tokyo). […]
# [2] = tested on: anaphylactic bronchoconstriction; assay: Effect on anaphylactic bronchoconstriction response; format: in vivo, guinea pig; details: oral administration one hour before the antigen; from AUC suppression ratio
# Description: For passive sensitization, 1 ml of rabbit anti-ovalbumine serum was peritoneally administered to male Hartley guinea pigs, and 16 to 24 hours later, ovalbumine was intravenously administered as the antigen. The induced anaphylactic bronchoconstriction was measured by the modified Konzett and Rossler method. Each of the tracheal cannulae was completely closed at the end of the measurement and the measured constriction was defined as the maximum constriction. Changes in the constriction were measured as percentage in the maximum constriction. The area under the curve (AUC) indicating the strength of the response was calculated by an image analyzer (MCID system, Imaging Research Company). The test compound was orally administered one hour before the antigen administration, and the ID50 value of each drug was calculated from the AUC suppression ratio by linear regression analysis.
# phosphodiesterase 4A = target: T1, phosphodiesterase 4A (Homo sapiens, UniProt P27815); assay: Recombinant human PDE4A assay; format: biochemical
# T1 construct: made in house; host or cells: E. coli
# [3] = tested on: histamine-induced bronchoconstriction; assay: Suppression of histamine-induced bronchoconstriction response in guinea pig; format: in vivo; details: intravenous administration; histamine 10 μg/kg iv
# Description: This test was carried out by a modified Konzett and Rossler method. Under anesthesia with urethane (1.2 g/kg, ip), male Hartley guinea pigs (body weight: 500 to 600 g) were fixed on plates by strings. After undertaking a tracheotomy, cannulae were inserted to the tracheae, right carotid arteries, and left cervical veins. The spontaneous respiration of the guinea pigs was stopped by the administration of gallamie (10 mg/kg) from the left cervical veins via the cannulae. The cannulae inserted into the tracheae were connected to a bronchospasm transducer (Ugo Basile) and a respirator (TB-101, Takashima-shoten, 60 to 70 strokes/minutes, output: 5 cc) and the air overflow volume was recorded by a polygraph (RM-45, Nippon Koden) to measure the amount of bronchoconstriction. For measuring blood pressure, the cannulae inserted in the right carotid arteries were connected to a blood-pressure transducer. Constant bronchoconstriction occurred when histamine (10 μg/kg, iv) was administered at 3 minutes intervals, and the induced bronchoconstriction was used as the control. A test compound was intravenously administered, and one minute later histamine (10 μg/kg, iv) was administered. The test compound was cumulatively administered at 5 minutes intervals, and the bronchoconstriction in control and that after the administration of the test compound was compared.
# [4] = tested on: cAMP-specific phosphodiesterase (PDE IV); assay: Inhibition of the PDE IV enzyme derived from a dog trachea; format: biochemical; details: test compound 10^−6 M; PDE IV from dog tracheal smooth muscle; substrate cAMP 1 μM
# Outline: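 Enzyme purified from dog tracheal smooth muscle; [3H]cAMP substrate at 1 μM final in 50 mM BES pH 7.2, 1 mM MgCl2, 0.1 mg/ml soybean trypsin inhibitor, 30° C for 10–30 min, 1.7% DMSO final. After HCl stop, product converted to adenosine by 5′-nucleotidase, separated on DEAE-Sephadex and scintillation-counted.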
# [5] = tested on: guinea pig bronchial smooth muscle; assay: Suppression of passive Schultz-Dale response in guinea pig bronchial smooth muscle; details: Cavia porcellus; ovalbumin-induced constriction of passively sensitized guinea pig tracheal strips; read-out: IC50 (concentration causing 50% relaxation)
# Description: For passive sensitization, rabbit anti-ovalbumin serum prepared by the method of Kohda et al. [Nichiyakurishi, 66, 237 (1970)] was peritoneally administered to male Hartley guinea pigs weighing 350 to 500 g, and 24 hours later the tracheae thereof were removed to be used for the experiment. Zig-zag strips were prepared from the tracheae in accordance with the method of Emmerson and Mackay [J. Pharm. Pharmacol., 31, 798 (1979)], and they were suspended in a Krebs-Henseleit solution with aeration of a mixture of 95% oxygen and 5% carbon dioxide at 37° C. After stabilizing for approximately one hour, ovalbumin, as the antigen, was added to the mixture (at a final concentration of […]), and the constriction of the muscle was recorded by a recorder (TYPE 3066; Yokokawa Hokushin Denki) via an isotonic transducer (TD-112S; Nippon Koden). A test compound was cumulatively added to the mixture after the constriction had reached the plateau, and the relaxation ratio was determined. The concentration (IC50) causing 50% relaxation was calculated by linear regression analysis.
# [6] = Method B, dose 30 mg/kg orally 90 min before LPS
# [7] = Method A, dose 10 mg/kg orally 90 min before LPS
# T1 sequence (P27815 224-886 limits assumed): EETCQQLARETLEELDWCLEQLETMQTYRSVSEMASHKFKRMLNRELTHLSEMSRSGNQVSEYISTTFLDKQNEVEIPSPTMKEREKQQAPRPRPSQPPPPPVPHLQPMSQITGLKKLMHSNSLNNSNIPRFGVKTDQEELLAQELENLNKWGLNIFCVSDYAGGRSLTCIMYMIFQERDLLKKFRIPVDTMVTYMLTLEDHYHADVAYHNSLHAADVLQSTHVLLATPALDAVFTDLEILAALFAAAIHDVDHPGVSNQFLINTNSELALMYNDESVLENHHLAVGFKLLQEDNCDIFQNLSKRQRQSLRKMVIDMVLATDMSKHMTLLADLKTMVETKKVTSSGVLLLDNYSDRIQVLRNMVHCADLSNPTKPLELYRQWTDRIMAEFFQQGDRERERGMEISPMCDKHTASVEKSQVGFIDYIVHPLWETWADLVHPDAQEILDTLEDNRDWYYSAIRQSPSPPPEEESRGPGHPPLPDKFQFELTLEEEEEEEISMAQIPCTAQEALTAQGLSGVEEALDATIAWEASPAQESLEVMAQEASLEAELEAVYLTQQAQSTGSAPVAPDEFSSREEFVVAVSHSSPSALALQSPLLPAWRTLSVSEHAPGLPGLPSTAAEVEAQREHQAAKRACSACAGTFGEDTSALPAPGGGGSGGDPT
SMILES,Number of vomiting animals/Number of experimental animals (Sunkus murinus),Suppression rate (%) (TNF α production; [7]),other results
"COc1ccc(C(=O)Cc2c(Cl)cncc2Cl)c2cc(C(=O)N3CCN(CCO)CC3)oc12 [Compound 207, 4-[2-(3,5-Dichloro-4-pyridyl)-1-oxoethyl]-2-[4-(2-hydroxyethyl)-1-piperazinylcarbonyl]-7-methoxybenzofuran]",0/5,–,Suppression rate (%) (TNF α production; [6]): 65%
"COc1ccc(C(=O)Cc2c(Cl)cncc2Cl)c2cc(C(=O)NCCN3CCOCC3)oc12 [Compound 216, N-(2-morpholinoethyl)-4-[2-(3,5-dichloropyridin-4-yl)-1-oxo]ethyl-7-methoxybenzofuran-2-carboxamide]",0/5,75,inhibiting activity against eosinophils [1]: 100%; inhibiting activity against neutrophils [1]: 92%
"COc1ccc(-c2ccc(C(=O)O)cc2)c2c1OC(C)(C)O2 [Compound 204, 7-(4-carboxyphenyl)-2,2-dimethyl-4-methoxy-1,3-benzodioxole]",2/5,79,melting point: 237 to 239 °C
"COc1ccc(C(=O)Cc2ccncc2)c2c1OC1(CCCC1)C2.Cl [Compound 100, 7-Methoxy-4-[1-oxo-2-(4-pyridyl)ethyl]-spiro[2,3-dihydrobenzofuran-2,1′-cyclopentane].hydrochloride]",–,–,"ID50 value (50% inhibitory dose) [2]: 0.53 mg/kg; Enzyme Inhibitory Activity (%, 10^−7 M) (phosphodiesterase 4A): 99%"
"COc1ccc(C(=O)Nc2c(Cl)cncc2Cl)c2cc(C(=O)N3CCN(C)CC3)oc12 [Compound 201, 4-(3,5-dichloro-4-pyridyl)aminocarbonyl-7-methoxy-2-(4-methyl-1-piperazinyl)carbonylbenzofuran]",0/5,70,–
"COc1ccc(-c2cnccc2C)c2c1OC1(CCCC1)O2 [Compound 205, 4-methoxy-7-(4-methyl-3-pyridyl)-spiro[1,3-benzodioxole-2,1′-cyclopentane]]",0/5,79,–
"COc1ccc(C(=O)Cc2ccncc2)c2c1OC1(CCCC1)C2.Cl [RA, 7-methoxy-4-[1-oxo-2-(4-pyridyl)ethyl]-spiro[2,3-dihydrobenzofuran-2,1′-cyclopentane] hydrochloride, reference compound]",5/5,81,Suppression rate (%) (TNF α production; [6]): 81%
"COc1ccc(/C=C/c2ccncc2)c2c1OC(C)(C)C2 [Compound 68, (E)-7-Methoxy-2,2-dimethyl-4-[2-(4-pyridyl)ethenyl]-2,3-dihydrobenzofuran]",–,–,"ID50 value (50% inhibitory dose) [3]: 0.076 mg/kg; Enzyme Inhibitory Activity (%, 10^−6 M) [4]: 80%; melting point: 145 to 149 °C; IC50 [5]: 1600 nM"
